Laboratory results as given in PMC10482267, “Safety, tolerability, pharmacokinetics, and pharmacodynamics of single and multiple doses of aficamten in healthy Chinese participants: a randomized, double-blind, placebo-controlled, phase 1 study” (Frontiers in Pharmacology, 2023).
Several values for one entry are separate records, joined by “and”; a condition that tells them apart may be missing. Equal values may be shown once. Entries after “also recorded” stand apart in the source; their conditions may differ. Read-outs that look alike come from different tables or passages of the source.

What was measured:
CYP2D6 = system: CYP2D6; set-up: method as in not given; details: in vitro; forms metabolites CK-3834282 and CK-3834283; ref not given; cited from earlier work
[1] = Plasma pharmacokinetics of aficamten and metabolites after single and multiple oral doses, phase 1 study; format: in vivo, human; details: for AR_AUC (accumulation ratio based on AUC0-24) / AR_Cmax (accumulation ratio based on Cmax): day 14 vs day 1; for Tmax / AUC(0-inf) / AUC(0-t) / Cmax / half-life: human
Method: This was a double-blind, randomized, placebo-controlled, phase 1 study including SAD and MD dose cohorts (Figure 1). […] For the second single-dose cohort, 20 mg was chosen as the escalated dose according to the dosing plan scheduled in the phase 3 study (CY 6031: NCT05186818). Furthermore, a multiple oral dose of 5 mg once daily (QD) was selected to explore the steady-state PK exposure in Chinese participants and to compare the findings with the MAD 5 mg QD results in the study CY 6011.
A total of 28 participants were enrolled in the study, with eight participants per SAD cohort (10 mg and 20 mg) and 12 participants in the MD cohort (5 mg). The sample size chosen for this study was based on other precedent PK studies of similar nature and was not based on power calculations. In each SAD cohort, eight eligible participants were randomized in 3:1 ratio to receive a single oral dose of aficamten or the matching placebo after overnight fasting. The dose escalation criteria (see Supplementary File S1) had to be met to proceed from the SAD 10 mg cohort to the SAD 20 mg cohort. In addition, the SAD 20 mg cohort started at least 5 days after the last subject’s administration in the SAD 10 mg cohort. Upon the completion of the SAD 20 mg cohort, the study proceeded to the MD 5 mg cohort when the dose escalation criteria were met. The MD cohort started at least 5 days later after the last subject’s administration in the SAD 20 mg cohort. In the MD cohort, 12 eligible participants were enrolled and randomized in 3:1 ratio to receive multiple oral doses of 5 mg of aficamten or the matching placebo under fasting conditions for 14 days. The investigator would determine if stopping rules (see Supplementary File S2) were met in this cohort.
Blood samples (4 mL) for plasma PK analysis of aficamten and its metabolites (mono-hydroxylated derivative CK-3834282 and its diastereomer CK-3834283) were collected into K2EDTA tubes in the SAD cohorts at the following time points: at pre-dose and at 0.25, 0.5, 1, 1.5, 2, 2.5, 3, 4, 6, 8, 12, 16, 24, 36, 48, 72, 96, and 216 h post-dose. In the MD cohort, blood samples were collected at pre-dose and at 0.25, 0.5, 1, 1.5, 2, 2.5, 3, 4, 6, 8, 12, and 16 h post-dose on day 1; at pre-dose and at 1.5 h post-dose on day 2, days 4–6, and day 9; at pre-dose on day 3, days 7–8, and days 10–13; at pre-dose and at 0.25, 0.5, 1, 1.5, 2, 2.5, 3, 4, 6, 8, 12, 16, 24, 36, 48, 72, 168, and 216 h post-dose on day 14. After collection, blood samples were centrifuged at 1700 g for 10 min at 4°C ± 2°C; plasma was aliquoted and stored at −80°C ± 20°C until analyzed. Meanwhile, samples for urine PK analysis of aficamten were collected in the MD cohort as follows: pre-dose, 0–4 h, 4–8 h, 8–12 h, and 12–24 h on days 1 and 14, respectively.
The samples were determined using a validated ultra-performance liquid chromatography-tandem mass spectrometry (UPLC-MS/MS) method. The detection was performed on a tandem mass spectrometer in the electrospray ionization (ESI)-positive mode. The multiple reactions monitoring (MRM) mode was applied to monitor the following ion transitions: m/z 338.2→213.2 for aficamten and m/z 354.3→ 229.3 for metabolite CK-3834282 and its diastereomer CK-3834283. Note that the diastereomers were separated from chromatography during the analysis. The calibration curves of the plasma and urine samples were linear, ranging from 1 to 500 ng/mL, and the intra- and inter-run accuracies (RE%) and precisions (RSD%) were within ±15%. In addition, the selectivity, matrix effect, extraction recovery, carryover, and stability at different conditions were also fully evaluated.
The plasma PK parameters were evaluated using the plasma concentrations by the non-compartmental model approach using WinNonlin (version 8.3, Certara LP, Princeton, NJ, USA) and were summarized descriptively by the cohort and dose. […]

[2] = system: healthy Western participants; details: 2022, cited from earlier work
[3] = MD 5 mg once daily, mean ± SD, listed as Aficamten

## CCc1nc(-c2ccc3c(c2)CC[C@H]3NC(=O)c2cnn(C)c2)no1 [aficamten]
CYP2D6
  CYP isoform involved in metabolism: CYP2D6, as the primary isoform involved in aficamten metabolism
[1]; MD 5 mg once daily, mean ± SD
  AR_AUC (accumulation ratio based on AUC0-24): 4.2 and 4.16
  AR_Cmax (accumulation ratio based on Cmax): 1.8
[1]; [3]
  AR_AUC (accumulation ratio based on AUC0-24): 4.2 ± 0.4
  AR_Cmax (accumulation ratio based on Cmax): 1.8 ± 0.6
[1]; MD 5 mg, day 14, plasma, mean ± SD
  t1/2: 76.8 ± 11.8 h
[1]; MD 5 mg, day 14, plasma, median (minimum, maximum)
  tmax (tmax,ss): 0.5 (0.25, 2.0) h
[1]; MD 5 mg, day 14, mean ± SD
  CL/F: 3.8 ± 0.6 L/h
  V/F: 412.7 ± 66.1 L
[1]; SAD 10 mg, mean ± SD
  CL/F: 3.0 ± 0.19 L/h
  V/F: 320.3 ± 51.3 L
[1]; SAD 20 mg, plasma, mean ± SD
  t1/2: 77.3 ± 13.6 h
[1]; SAD 20 mg, mean ± SD
  CL/F: 3.4 ± 0.2 L/h
  V/F: 371.9 ± 55.4 L
[1]; dose range 5–20 mg
  dose proportionality of plasma exposure (AUC0-24 and Cmax), in words: dose-proportional
[1]; oral, MD 5 mg, day 1, plasma, median (minimum, maximum), read-out: tmax
  Tmax: 0.5 h
[1]; oral, SAD 10 mg, plasma, mean ± SD
  AUC(0-inf): 3340 ± 223 ng·h/mL
[1]; oral, SAD 10 mg, plasma, median (minimum, maximum), read-out: tmax
  Tmax: 0.75 h
[1]; oral, SAD 20 mg, plasma, mean ± SD
  AUC(0-inf): 5990 ± 415 ng·h/mL
[1]; oral, SAD 20 mg, plasma, median (minimum, maximum), read-out: tmax
  Tmax: 0.5 h
[1]; plasma, oral, 5 mg, MD 5 mg once daily, day 1, plasma, mean ± SD, N = 9, read-out: AUC0-24
  AUC(0-t): 325 ± 32.6 ng·h/mL
[1]; plasma, oral, 5 mg, MD 5 mg once daily, day 14, plasma, mean ± SD, N = 9, read-out: AUC0-24
  AUC(0-t): 1360 ± 215 ng·h/mL
[1]; plasma, oral, 5 mg, MD 5 mg, day 1, plasma, mean ± SD, read-out: AUC0-t
  AUC(0-t): 324 ± 32.5 ng·h/mL
[1]; plasma, oral, 5 mg, MD 5 mg, day 1, plasma, mean ± SD, read-out: Cmax
  Cmax: 72.6 ± 19.5 ng/mL
[1]; plasma, oral, 5 mg, MD 5 mg, day 1, plasma, mean ± SD, read-out: t1/2 (converted)
  half-life: 38.6 ± 16.1 h
[1]; plasma, oral, 5 mg, MD 5 mg, day 14, plasma, mean ± SD, read-out: Cmax (Cmax,ss)
  Cmax: 122 ± 35.2 ng/mL
[1]; plasma, oral, 5 mg, MD 5 mg, day 14, plasma, mean ± SD, read-out: t1/2 (converted)
  half-life: ~77 h
[1]; plasma, oral, 10 mg, SAD 10 mg, plasma, mean ± SD, read-out: AUC0-t
  AUC(0-t): 2780 ± 249 ng·h/mL
[1]; plasma, oral, 10 mg, SAD 10 mg, plasma, mean ± SD, read-out: Cmax
  Cmax: 115 ± 29.9 ng/mL
[1]; plasma, oral, 10 mg, SAD 10 mg, plasma, mean ± SD, read-out: t1/2 (converted)
  half-life: 73.8 ± 10.2 h
[1]; plasma, oral, 20 mg, SAD 20 mg, plasma, mean ± SD, read-out: AUC0-t
  AUC(0-t): 5290 ± 372 ng·h/mL
[1]; plasma, oral, 20 mg, SAD 20 mg, plasma, mean ± SD, read-out: Cmax
  Cmax: 227 ± 71.8 ng/mL
[1]; plasma, oral, all cohorts, read-out: time of peak concentration (tmax day 1, tmax,ss day 14)
  Tmax: 0.5 to 0.75 h
[1]; plasma, po, 10 mg, SAD 10 mg single oral dose, fasted, plasma, mean ± SD, N = 6, read-out: AUC0-24
  AUC(0-t): 670 ± 85 ng·h/mL
[1]; plasma, po, 20 mg, SAD 20 mg single oral dose, fasted, plasma, mean ± SD, N = 6, read-out: AUC0-24
  AUC(0-t): 1300 ± 151 ng·h/mL
[1]; plasma, po, across single oral dose 10 mg and 20 mg and 14 days QD 5 mg, read-out: mean half-life
  half-life: 74 to 77 h
[1]; plasma, po, single oral dose of 10 mg and 20 mg of aficamten, across both doses, read-out: t1/2 (arithmetic mean)
  half-life: 74 to 77 h
[2]; 5 mg QD 14 days, healthy Western participants, CY 6011, ref Robertson et al., 2019, Malik et al.
  accumulation ratio (AR_AUC0-24): 4.71
[2]; 10 mg single dose, healthy Western participants, ref Malik et al.
  Cmax, mean (SD): 70.5 (69.0) ng/mL
[2]; CYP2D6-PM cohort vs non-poor metabolizers, CY 6011, ref Malik et al.
  effect of CYP2D6 poor metabolizer status on aficamten exposure: comparable; also recorded: did not affect the pharmacokinetics
[2]; SAD 10 mg, healthy Western participants, ref Malik et al.
  median tmax: 1.8 h
[2]; daily dosing, CY 6011, ref Robertson et al., 2019, Malik et al.
  time after which steady-state appeared evident: 14 days
[2]; healthy Western populations, FIH phase 1, ref Robertson et al., 2019, Malik et al.
  safety and tolerability: safe and well-tolerated
